Measurements published in the supplement of paper PMC6723410.

Assays:
GUMC-403 [1] = experiment: viability at highest tested concentration (max response) relative to DMSO (% of DMSO control); higher = less cytotoxic; conditions: library / dose series: MIPE library, 11-point 1:3 dilution; top concentration 46.1 µM; 48 h
Outline: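 Conditionally reprogrammed GUMC-403 papilloma cells from a patient were plated at 700/well in 5 μL F + Y medium in 1536-well plates and left overnight at 37 °C. A pin tool then added 23 nL of library compounds as an 11-point 1:3 series, for 48 h. CellTiter-Glo luminescence was read on a ViewLux and scaled with vehicle wells set to 100% and empty wells to 0%. Each value gives viability at the highest tested concentration relative to vehicle control.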

GUMC-403 [2] = experiment: AC50 for reduction of cell viability; higher = less potent; conditions: 48 h
[3] = library / dose series: MIPE library, 11-point 1:3 dilution
[4] = library / dose series: NPC library, 8-point 1:5 dilution

Compound	viability (GUMC-403 [1])	AC50 for reduction of cell viability (GUMC-403 [2]; [3]) [µM]	AC50 for reduction of cell viability (GUMC-403 [2]; [4]) [µM]
CC(C)C[C@H](NC(=O)[C@H](Cc1ccccc1)NC(=O)c1cnccn1)B(O)O	3.84	0.264	0.15
CC(C)C[C@H](NC(=O)CNC(=O)c1cc(Cl)ccc1Cl)B(O)O	14.7	3.32	
COC[C@H]1OC(=O)C2=COC3=C2[C@@]1(C)\C4=C(\[C@@H]5CC[C@H](O)[C@@]5(C)C[C@H]4OC(C)=O)C3=O	57.4	4.18	
O=C(Nc1c[nH]nc1-c1nc2cc(CN3CCOCC3)ccc2[nH]1)NC1CC1	8.38	6.62	
Cc1ncc(-c2ccnc(Nc3ccc([S+](C)(=O)[O-])cc3)n2)n1C(C)C	47.8	10.5	
CC(=O)Nc1ccc([C@H](C)C(=O)Nc2ncc(C(C)C)s2)cc1	15.9	1.66	
FC(F)c1nc2ccccc2n1-c1nc(N2CCOCC2)nc(N2CCOCC2)n1	71.9	0.418	
C[C@@]12OC(=O)[C@@]1(NC(=O)[C@@H]2CCCl)[C@@H](O)[C@H]\3CCC\C=C3	6.32	3.72	
COc1cc2ncnc(Nc3cc(Br)c(O)c(Br)c3)c2cc1OC	73.9	1.48	
CC(C)[C@H](C(=O)Nc1ccc(C(=O)NO)cc1)c1ccccc1	11	18.7	
c1cncc(CN2CCC(n3ncc4c(N5CCOCC5)nc(-c5ccc6[nH]ccc6c5)nc43)CC2)c1	62.6	0.332	
CC(C)n1nc(-c2cc3cc(O)ccc3[nH]2)c2c(N)ncnc21	69.2		1.19
CC#C[C@]1(O)CC[C@H]2[C@@H]/3CCC/4=C/C(=O)CCC4=C3[C@H](C[C@]12C)C5=CC=C(C=C5)N(C)C	59	0.833	
C=CCNc1c(O)cc2c(O)c1C[C@@H](C)C[C@H](OC)[C@H](O)[C@@H](C)/C=C(/C)[C@H](OC(N)=O)[C@@H](OC)/C=C\C=C(\C)C(=O)N2	68.9	4.69	
C[C@@H]\1COC(=N1)\NC2=CC3=C(C=C2)N=CN=C3NC4=CC(=C(OCC5=NC=CS5)C=C4)Cl	54.5	0.59	
O=C1NC(=O)/C(=C/c2ccc3nccc(-c4ccncc4)c3c2)S1	18.7	0.235	
C[C@H](NCc1ccc2c(c1)nc(NC(=O)c1ccc(-c3cn[nH]c3)s1)n2CCc1ccccc1)C(C)(C)C	8.07	3.72	
CNC(=O)c1nn(C)c2c1C(C)(C)Cc1cnc(Nc3ccc(N4CCN(C)CC4)cc3)nc1-2	58.7	4.69	
Cc1ccc2nc(NCCN)c3ncc(C)n3c2c1	33.4	13.2	
COc1cc2ncn(-c3cc(OCc4ccccc4C(F)(F)F)c(C(N)=O)s3)c2cc1OC	18.8	23.5	
OC[C@H]1OC(OC2=CC3=C(C(=C2)O)C(=O)\C(=C/O3)C4=CC=C(O)C=C4)[C@H](O)[C@@H](O)[C@@H]1O (some centres not stated)	21.4	9.35	
CO[C@H]1/C=C/O[C@@]2(C)Oc3c(C)c(O)c4c(O)c(c(/C=N\N5CCN(C6CCCC6)CC5)c(O)c4c3C2=O)NC(=O)/C(C)=C\C=C\[C@H](C)[C@H](O)[C@@H](C)[C@@H](O)[C@@H](C)[C@H](OC(C)=O)[C@@H]1C	56	0.296	
CC(=O)NCC(=O)N1[C@@H]2CC[C@H]1c1ccc(Nc3ncc(C(F)(F)F)c(NC4CCC4)n3)cc12	4.61	18.7	
Cn1c2ccccc2c2c3c(c4c5ccccc5n(CCC#N)c4c21)CNC3=O	65.1	7.43	
CCn1nnc2c(N3CCOCC3)nc(-c3ccc(NC(=O)Nc4ccc(C(=O)N5CCN(C)CC5)cc4)cc3)nc21	54.4	0.00935	
CC(/C=C/C(=O)NO)=C\[C@@H](C)C(=O)c1ccc(N(C)C)cc1	26	20.9	
CC(=O)Nc1nc(C)c(-c2ccc(Cl)c([S+](=O)([O-])NCCO)c2)s1	12.5	14.8	
Cc1nc2cnc3ccc(C#Cc4cccnc4)cc3c2n1-c1ccc(C(C)(C)C#N)cc1	46.6	0.0935	
